Results on 2 compounds are retold here after the NIST ThermoML archive (doi:10.1021/je060017i).

What is called mass density is the mass of a sample divided by its volume. Usually speed of sound stands for how fast a sound wave travels through the sample. As usually defined, the viscosity is the internal friction of a fluid under shear.

For the series the following is noted: 101.33 kPa, Liquid.

± gives the expanded uncertainty stated by the source.

`CCCCO` [butan-1-ol]: the mass density is, setting by setting: (283.15 K) 816.92 ± 0.59 kg/m3; (298.15 K) 805.73 ± 0.6 kg/m3; (313.15 K) 794.38 ± 0.6 kg/m3. In addition, the speed of sound was found to be 1292.1 ± 1.7 m/s (283.15 K), 1242.9 ± 1.6 m/s (298.15 K) and 1186.3 ± 1.6 m/s (313.15 K). For the same compound, the viscosity by setting is: (283.15 K) 3.869 ± 0.087 mPa·s; (298.15 K) 2.561 ± 0.059 mPa·s; (313.15 K) 1.757 ± 0.042 mPa·s.
Take `CC1CCCO1` (stereo not drawn) [2-methyltetrahydrofuran]: the mass density is recorded as 864.17 ± 0.55 kg/m3 (283.15 K), 849.04 ± 0.56 kg/m3 (298.15 K) and 833.76 ± 0.57 kg/m3 (313.15 K). Further, the speed of sound was determined as 1276.6 ± 1.6 m/s (283.15 K), 1202.2 ± 1.6 m/s (298.15 K) and 1129.9 ± 1.6 m/s (313.15 K). Also, the viscosity is recorded as 0.5618 ± 0.015 mPa·s (283.15 K), 0.4776 ± 0.014 mPa·s (298.15 K) and 0.4088 ± 0.012 mPa·s (313.15 K).
